# Measured values taken from patent publication US5834461A, “Tricyclic benzazepine vasopressin antagonists” (American Cyanamid Company, priority 1997, dated 1998).
# Assays:
# [1] = target: vasopressin V1 receptor (rat liver plasma membranes) (Rattus norvegicus, UniProt P30560); assay: Binding Assay to Rat Hepatic V1 Receptors; conditions: rat hepatic V1
# Experimental: Rat liver plasma membranes expressing the vasopressin V1 receptor subtypes are isolated by sucrose density gradient according to the method described by Lesko et al., (1973). These membranes are quickly suspended in 50.0 mM Tris.HCl buffer, pH 7.4, containing 0.2% bovine serum albumin (BSA) and 0.1 mM phenylmethylsulfonylfluoride (PMSF) and kept frozen at -70° C. until used in subsequent binding experiments. For binding experiments, the following is added to the wells of a ninety-six well format microtiter plate: 100 μl of 100.0 mM Tris.HCl buffer containing 10.0 mM MgCl2, 0.2% heat inactivated BSA and a mixture of protease inhibitors: leupeptin, 1.0 mg %; aprotinin, 1.0 mg %; 1,10-phenanthroline,2.0 mg %; trypsin inhibitor, 10.0 mg % and 0.1 mM PMSF, 20.0 μl of [phenylalanyl-3,4,5,-^3 H] vasopressin (S.A. 45.1 Ci/mmole) at 0.8 nM, and the reaction initiated by the addition of 80 μl of tissue membranes containing 20 μg of tissue protein. The plates are kept undisturbed on the bench top at room temperature for 120 min. to reach equilibrium. Non-specific samples are assayed in the presence of 0.1 μM of the unlabeled antagonist phenylalanylvasopressin, added in 20.0 μl volume.
# For test compounds, these are solubilized in 50% dimethylsulfoxide (DMSO) and added in 20.0 μl volume to a final incubation volume of 200 μl. Upon completion of binding, the content of each well is filtered off, using a Brandel® cell Harvester (Gaithersburg, Md.). The radioactivity trapped on the filter disk by the ligand-receptor complex is assessed by liquid scintillation counting in a Packard LS Counter, with an efficiency of 65% for tritium.
# vasopressin V2 = assay: Vasopressin V2 Antagonist Activity in Conscious Hydrated Rats (diuretic effect); assay type: in vivo, normal Sprague-Dawley rats; conditions: AVP 0.4 μg/kg i.p.
# Experimental: Conscious hydrated rats are treated with compounds under study from 0.1 to 100 mg/kg orally or vehicle. Two to four rats are used for each compound. One hour later, arginine vasopressin (AVP, antidiuretic hormore, ADH) dissolved in peanut oil is administered at 0.4 μg/kg intraperitoneally. Two rats in each test would not receive arginine vasopressin but only the vehicle (peanut oil) to serve as water-loading control. Twenty minutes later each rat is given 30 mL/kg of deionized water orally by gavage and is placed individually in a metabolic cage equipped with a funnel and a graduated glass cylinder to collect urine for four hours. Urine volume is measured and osmolality analyzed by use of a Fiske One-Ten osmometer (Fiske Assoc., Norwood, Mass., USA). Urinary sodium, potassium, and chloride are analyzed by use of ion-specific electrodes in a Beckman E3 (Electrolyte 3) Analyzer. In the following results, […] and decreased osmolality relative to AVP-control indicates activity.
# vasopressin V1 = assay: Vasopressin V1 Antagonist Activity in Conscious Rats (vasopressin vasopressor response); assay type: in vivo, rat (spontaneously hypertensive rats); parameters: Average Change: unit not given here
# Experimental: Conscious rats are restrained in a supine position with elastic tape. The area at the base of the tail is locally anesthetized by subcutaneous infiltration with 2% procaine (0.2 ml). Using aseptic technique the ventral caudal tail artery is isolated and a cannula made of PE 10 and 20 (heat-fused) tubing is passed into the lower abdominal aorta. The cannula is secured, heparinized (1000 i.u./cc), sealed and the wound closed with one or two stitches of Dexon 4-0. The caudal vein is also cannulated in the same manner for intravenous drug administration. The duration of the surgery is approximately 5 minutes. Additional local anesthesia (2% procaine or lidocaine) is provided as needed.
# The animals are placed in plastic restraining cages in an upright position. The cannula is attached to a Statham P23Db pressure transducer and pulsatile blood pressure is recorded. […] The vasopressin injections are repeated 30, 60, 90, 120, 180, 240 and 300 min. later. Percentage of antagonism by the compound is calculated using the pre-drug vasopressin vasopressor response as 100%.
# [2] = target: T1, rat kidney medullary V2 receptors (Rattus norvegicus, UniProt Q00788); assay: Binding Assay to Rat Kidney Medullary V2 Receptors; conditions: rat kidney medullary V2
# T1 construct: Medullary tissues from rat kidneys are dissected out; from tissue; host or cells: rat kidney medulla membranes
# T1 sequence (Q00788 whole entry): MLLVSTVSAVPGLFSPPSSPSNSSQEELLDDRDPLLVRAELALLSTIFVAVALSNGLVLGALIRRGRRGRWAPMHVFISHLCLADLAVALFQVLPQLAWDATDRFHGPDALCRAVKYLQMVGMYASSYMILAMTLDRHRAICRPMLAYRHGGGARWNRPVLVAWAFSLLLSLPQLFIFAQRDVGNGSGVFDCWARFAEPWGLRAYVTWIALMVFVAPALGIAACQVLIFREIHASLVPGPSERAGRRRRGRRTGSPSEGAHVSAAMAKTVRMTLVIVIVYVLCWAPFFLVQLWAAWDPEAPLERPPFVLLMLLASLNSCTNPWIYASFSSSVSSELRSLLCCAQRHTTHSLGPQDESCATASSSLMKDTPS
# Experimental: Medullary tissues from rat kidneys are dissected out, cut into small pieces and soaked in a […] sodium chloride solution containing 1.0 mM EDTA with many changes of the liquid phase, until the solution is clear of blood. The tissue is homogenized in a 0.25M sucrose solution containing 1.0 mM EDTA and 0.1 mM PMSF using a Potter-Elvehjem homogenizer with a teflon pestle. The homogenate is filtered through several layers (4 layers) of cheese cloth. The filtrate is rehomogenized using a dounce homogenizer, with a tight fitting pestle. The final homogenate is centrifuged at 1500×g for 15 min. The nuclear pellet is discarded and the supernatant fluid recentrifuged at 40,000×g for 30 min. The resulting pellet formed contains a dark inner part with the exterior, slightly pink. The pink outer part is suspended in a small amount of 50.0 mM Tris.HCl buffer, pH 7.4. The protein content is determined by the Lowry's method (Lowry et al., J. Biol. Chem., 1953). The membrane suspension is stored at -70° C., in 50.0 mM Tris.HCl, containing 0.2% inactivated BSA and 0.1 mM PMSF in aliquots of 1.0 ml containing 10.0 mg protein per ml of suspension until use in subsequent binding experiments.
# For binding experiments, the following is added in μl volume to wells of a 96 well format of a microtiter plate: 100.0 μl of 100.0 mM Tris.HCl buffer containing 0.2% heat inactivated BSA, 10.0 mM MgCl2 and a mixture of protease inhibitors: leupeptin, 1.0 mg %; aprotinin, 1.0 mg %; 1,10-phenanthroline, 2.0 mg %; trypsin inhibitor, 10.0 mg % and 0.1 mM PMSF, 20.0 μl of [^3 H] Arginine^8, vasopressin (S.A. 75.0 Ci/mmole) at 0.8 nM and the reaction initiated by the addition of 80.0 μl of tissue membranes (200.0 μg tissue protein). The plates are left undisturbed on the bench top for 120 min to reach equilibrium. Non-specific binding is assessed in the presence of 1.0 μM of unlabeled ligand, added in 20 μl volume. For test compounds, these are solubilized in 50% dimethylsulfoxide (DMSO) and added in 20.0 μl volume to a final incubation volume of 200 μl. Upon completion of binding, the content of each well is filtered off, using a Brandel® cell Harvester (Gaithersburg, Md.). The radioactivity trapped on the filter disk by the ligand-receptor complex is assessed by liquid scintillation counting in a Packard LS Counter, with an efficiency of 65% for tritium.
# [3] = 10 mg/kg i.v., VAS 0.01 i.u./kg, 30 min
# [4] = 10 mg/kg i.v., VAS 0.01 i.u./kg, 60 min
# [5] = 10 mg/kg i.v., VAS 0.01 i.u./kg, 90 min
# [6] = 10 mg/kg i.v., VAS 0.01 i.u./kg, 120 min
# [7] = 10 mg/kg i.v., VAS 0.01 i.u./kg, 180 min
# [8] = 10 mg/kg i.v., VAS 0.01 i.u./kg, 240 min
# [9] = 10 mg/kg i.v., VAS 0.01 i.u./kg, 300 min
# [10] = 10 mg/kg i.v., VAS 0.02 i.u./kg, 30 min
# [11] = 10 mg/kg i.v., VAS 0.02 i.u./kg, 60 min
# [12] = 10 mg/kg i.v., VAS 0.02 i.u./kg, 90 min
# [13] = 10 mg/kg i.v., VAS 0.02 i.u./kg, 120 min
# [14] = 10 mg/kg i.v., VAS 0.02 i.u./kg, 180 min
# [15] = 10 mg/kg i.v., VAS 0.02 i.u./kg, 240 min
# [16] = 10 mg/kg i.v., VAS 0.02 i.u./kg, 300 min
# [17] = 20 mg/kg i.v., VAS 0.01 i.u./kg, 60 min
# [18] = 20 mg/kg i.v., VAS 0.01 i.u./kg, 90 min
# [19] = 20 mg/kg i.v., VAS 0.01 i.u./kg, 120 min
# [20] = 20 mg/kg i.v., VAS 0.01 i.u./kg, 180 min
# [21] = 20 mg/kg i.v., VAS 0.01 i.u./kg, 240 min
# [22] = 20 mg/kg i.v., VAS 0.01 i.u./kg, 300 min
# [23] = 20 mg/kg i.v., VAS 0.02 i.u./kg, 60 min
# [24] = 20 mg/kg i.v., VAS 0.02 i.u./kg, 90 min
# [25] = 20 mg/kg i.v., VAS 0.02 i.u./kg, 120 min
# [26] = 20 mg/kg i.v., VAS 0.02 i.u./kg, 180 min
# [27] = 20 mg/kg i.v., VAS 0.02 i.u./kg, 240 min
# [28] = 20 mg/kg i.v., VAS 0.02 i.u./kg, 300 min
# Chain of vasopressin V1 receptor (rat liver plasma membranes) (P30560 whole entry): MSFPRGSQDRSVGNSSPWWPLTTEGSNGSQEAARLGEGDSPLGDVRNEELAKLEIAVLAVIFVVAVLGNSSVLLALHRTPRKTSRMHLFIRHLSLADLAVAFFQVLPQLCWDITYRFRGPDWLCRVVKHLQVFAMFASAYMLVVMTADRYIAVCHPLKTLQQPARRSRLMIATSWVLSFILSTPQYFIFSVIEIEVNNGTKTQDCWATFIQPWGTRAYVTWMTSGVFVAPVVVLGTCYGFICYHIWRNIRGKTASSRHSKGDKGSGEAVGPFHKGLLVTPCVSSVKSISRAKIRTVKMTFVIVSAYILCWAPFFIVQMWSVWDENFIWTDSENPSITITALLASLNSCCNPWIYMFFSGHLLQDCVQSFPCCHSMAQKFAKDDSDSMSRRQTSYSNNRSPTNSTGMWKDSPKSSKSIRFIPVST
compound,measurement,setting,value
Cc1ccccc1C(=O)Nc1ccc(C(=O)N2Cc3ccccc3C(C)c3ccccc32)cc1 (stereo not drawn) [Example 22],IC50,[1],320 nM
same,Osmolality,vasopressin V2; 30 mg/kg orally,738 mOsm/kg
same,Urine Volume,vasopressin V2; 30 mg/kg orally,10.2 ml/4 hrs.
same,Average Change,vasopressin V1; [3],8.5
same,Inhibition,vasopressin V1; [3],60%
same,Average Change,vasopressin V1; [4],11
same,Inhibition,vasopressin V1; [4],49%
same,Average Change,vasopressin V1; [5],14
same,Inhibition,vasopressin V1; [5],35%
same,Average Change,vasopressin V1; [6],17.5
same,Inhibition,vasopressin V1; [6],19%
same,Average Change,vasopressin V1; [7],20
same,Inhibition,vasopressin V1; [7],7%
same,Average Change,vasopressin V1; [8],28
same,Inhibition,vasopressin V1; [8],-30%
same,Average Change,vasopressin V1; [9],30
same,Inhibition,vasopressin V1; [9],-40%
same,Average Change,vasopressin V1; [10],18.5
same,Inhibition,vasopressin V1; [10],56%
same,Average Change,vasopressin V1; [11],25
same,Inhibition,vasopressin V1; [11],40%
same,Average Change,vasopressin V1; [12],13
same,Inhibition,vasopressin V1; [12],69%
same,Average Change,vasopressin V1; [13],30
same,Inhibition,vasopressin V1; [13],29%
same,Average Change,vasopressin V1; [14],36
same,Inhibition,vasopressin V1; [14],14%
same,Average Change,vasopressin V1; [15],48
same,Inhibition,vasopressin V1; [15],-14%
same,Average Change,vasopressin V1; [16],52.5
same,Inhibition,vasopressin V1; [16],-25%
same,IC50,[2],140 nM
"CSc1ccccc1C(=O)Nc1ccc(C(=O)N2Cc3ccccc3Cc3ccccc32)cc1 [Example 61, N-[4-[(6.11-Dihydro-5H-dibenz[b.e]azepin-5-yl)-carbonyl]phenyl]-2-(methylthio)benzamide]",IC50,[1],52 nM
same,Osmolality,vasopressin V2; 10 mg/kg orally,975 mOsm/kg
same,Urine Volume,vasopressin V2; 10 mg/kg orally,9.3 ml/4 hrs.
same,Average Change,vasopressin V1; [3],21
same,Inhibition,vasopressin V1; [3],26%
same,Average Change,vasopressin V1; [10],32.5
same,Inhibition,vasopressin V1; [10],37%
same,Average Change,vasopressin V1; [17],13
same,Inhibition,vasopressin V1; [17],54%
same,Average Change,vasopressin V1; [18],8
same,Inhibition,vasopressin V1; [18],72%
same,Average Change,vasopressin V1; [19],12
same,Inhibition,vasopressin V1; [19],58%
same,Average Change,vasopressin V1; [20],15.5
same,Inhibition,vasopressin V1; [20],46%
same,Average Change,vasopressin V1; [21],12
same,Inhibition,vasopressin V1; [21],58%
same,Average Change,vasopressin V1; [22],15.5
same,Inhibition,vasopressin V1; [22],46%
same,Average Change,vasopressin V1; [23],14.5
same,Inhibition,vasopressin V1; [23],72%
same,Average Change,vasopressin V1; [24],16.5
same,Inhibition,vasopressin V1; [24],68%
same,Average Change,vasopressin V1; [25],20
same,Inhibition,vasopressin V1; [25],61%
same,Average Change,vasopressin V1; [26],17.5
same,Inhibition,vasopressin V1; [26],66%
same,Average Change,vasopressin V1; [27],23
same,Inhibition,vasopressin V1; [27],55%
same,Average Change,vasopressin V1; [28],24
same,Inhibition,vasopressin V1; [28],53%
same,IC50,[2],68 nM
"Cc1ccccc1C(=O)Nc1ccc(C(=O)N2Cc3ccccc3Sc3ccccc32)cc1 [Example 62, N-[4-[(Dibenz[b,f][1,4]thiazepin-10(11H)yl)carbonyl]-phenyl]-2-methylbenzamide]",IC50,[1],404 nM
same,Osmolality,vasopressin V2; 10 mg/kg orally,1034 mOsm/kg
same,Urine Volume,vasopressin V2; 10 mg/kg orally,7.7 ml/4 hrs.
same,Average Change,vasopressin V1; [3],57
same,Inhibition,vasopressin V1; [3],-44%
same,Average Change,vasopressin V1; [10],61.5
same,Inhibition,vasopressin V1; [10],-2%
same,Average Change,vasopressin V1; [17],13
same,Inhibition,vasopressin V1; [17],67%
same,Average Change,vasopressin V1; [18],23
same,Inhibition,vasopressin V1; [18],42%
same,Average Change,vasopressin V1; [19],23.5
same,Inhibition,vasopressin V1; [19],41%
same,Average Change,vasopressin V1; [20],24.5
same,Inhibition,vasopressin V1; [20],38%
same,Average Change,vasopressin V1; [21],30
same,Inhibition,vasopressin V1; [21],24%
same,Average Change,vasopressin V1; [22],25
same,Inhibition,vasopressin V1; [22],37%
same,Average Change,vasopressin V1; [23],29.5
same,Inhibition,vasopressin V1; [23],51%
same,Average Change,vasopressin V1; [24],54
same,Inhibition,vasopressin V1; [24],11%
same,Average Change,vasopressin V1; [25],50
same,Inhibition,vasopressin V1; [25],17%
same,Average Change,vasopressin V1; [26],15
same,Inhibition,vasopressin V1; [26],75%
same,Average Change,vasopressin V1; [27],40.5
same,Inhibition,vasopressin V1; [27],33%
same,Average Change,vasopressin V1; [28],38
same,Inhibition,vasopressin V1; [28],37%
same,IC50,[2],858 nM
